The source of these data is ChEMBL document CHEMBL3774317, “Design and synthesis of novel tamoxifen analogues that avoid CYP2D6 metabolism” (Eur J Med Chem, 2016).

For data set [1], the system named is MDA-MB-468. Description: Cytotoxicity against human MDA-MB-468 cells assessed as cell growth at 10^-5 M after 48 hrs by SRB assay. Type of data set: functional. As to conditions: MDA-MB-468, 48 h, read-out: Activity. Background: Sulforhodamine B stains cellular protein and so reports cell mass.
A short description of data set [2]: Cytotoxicity against human SNB75 cells assessed as cell growth at 10^-8 M after 48 hrs by SRB assay. Type of data set: functional. As to conditions: SNB-75, 48 h, read-out: Activity.
Data set [3] is described as follows: Cytotoxicity against human COLO205 cells assessed as cell growth at 10^-4 M after 48 hrs by SRB assay. Type of data set: functional. The note with it: COLO 205, 48 h, read-out: Activity.
Data set [4] can be described thus: Cytotoxicity against human HCT116 cells assessed as cell growth at 10^-4 M after 48 hrs by SRB assay. Format: functional. The note with it: HCT-116, 48 h, read-out: Activity.
Data set [5] in a line: Cytotoxicity against human NCI-ADR-RES cells assessed as cell growth at 10^-7 M after 48 hrs by SRB assay. Type of data set: functional. The note with it: read-out: Activity.
The subject of data set [6] is NCI-H226. As to the kind of experiment: Cytotoxicity against human NCI-H226 cells assessed as cell growth at 10^-4 M after 48 hrs by SRB assay. As to conditions: NCI-H226, 48 h, read-out: Activity. Type of data set: functional.
Data set [7] is described as follows: Cytotoxicity against human OVCAR8 cells assessed as cell growth at 10^-8 M after 48 hrs by SRB assay. Format: functional. As to conditions: OVCAR-8, 48 h, read-out: Activity.
Data set [8] in a line: Cytotoxicity against human SF295 cells assessed as cell growth at 10^-8 M after 48 hrs by SRB assay. Format: functional. As to conditions: SF-295, 48 h, read-out: Activity.
Data set [9] has as its system MCF7. As to the kind of experiment: Cytotoxicity against human MCF7 cells assessed as cell growth at 10^-8 M after 48 hrs by SRB assay. Format: functional. The note with it: MCF7, 48 h, read-out: Activity.
The subject of data set [10] is SK-MEL-2. Description: Cytotoxicity against human SK-MEL-2 cells assessed as cell growth at 10^-4 M after 48 hrs by SRB assay. Format: functional. As to conditions: SK-MEL-2, 48 h, read-out: Activity.
For data set [11], the system named is NCI-H322M. Description: Cytotoxicity against human NCI-H322M cells assessed as cell growth at 10^-4 M after 48 hrs by SRB assay. Type of data set: functional. The note with it: read-out: Activity.
Data set [12] has as its system MDA-MB-468. Description: Cytotoxicity against human MDA-MB-468 cells assessed as cell growth at 10^-7 M after 48 hrs by SRB assay. Type of data set: functional. As to conditions: MDA-MB-468, 48 h, read-out: Activity.
Data set [13] relates to U-251. Description: Cytotoxicity against human U251 cells assessed as cell growth at 10^-6 M after 48 hrs by SRB assay. Type of data set: functional. As to conditions: U-251, 48 h, read-out: Activity.
Data set [14] in a line: Cytotoxicity against human SF539 cells assessed as cell growth at 10^-8 M after 48 hrs by SRB assay. As to conditions: SF-539, 48 h, read-out: Activity. Type of data set: functional.
Data set [15] in a line: Cytotoxicity against human UACC257 cells assessed as cell growth at 10^-5 M after 48 hrs by SRB assay. Format: functional. As to conditions: UACC-257, 48 h, read-out: Activity.
A short description of data set [16]: Cytotoxicity against human MOLT4 cells assessed as cell growth at 10^-4 M after 48 hrs by SRB assay. Type of data set: functional. As to conditions: MOLT-4, 48 h, read-out: Activity.
A short description of data set [17]: Cytotoxicity against human SW620 cells assessed as cell growth at 10^-6 M after 48 hrs by SRB assay. Type of data set: functional. As to conditions: SW-620, 48 h, read-out: Activity.
Data set [18] in a line: Cytotoxicity against human HOP62 cells assessed as cell growth at 10^-5 M after 48 hrs by SRB assay. The note with it: HOP-62, 48 h, read-out: Activity. Format: functional.
Data set [19] is described as follows: Cytotoxicity against human OVCAR8 cells assessed as cell growth at 10^-4 M after 48 hrs by SRB assay. As to conditions: OVCAR-8, 48 h, read-out: Activity. Type of data set: functional.
The nature of data set [20]: Cytotoxicity against human NCI-ADR-RES cells assessed as cell growth at 10^-6 M after 48 hrs by SRB assay. Type of data set: functional. As to conditions: read-out: Activity.
A short description of data set [21]: Cytotoxicity against human PC3 cells assessed as cell growth at 10^-6 M after 48 hrs by SRB assay. Format: functional. As to conditions: PC-3, 48 h, read-out: Activity.
A short description of data set [22]: Cytotoxicity against human OVCAR5 cells assessed as cell growth at 5 nM after 48 hrs by SRB assay. Format: functional. The note with it: OVCAR-5, 48 h, read-out: Activity.
Data set [23] in a line: Cytotoxicity against human SW620 cells assessed as cell growth at 50 nM after 48 hrs by SRB assay. Format: functional. As to conditions: SW-620, 48 h, read-out: Activity.
In data set [24] the test system is SN12C. As to the kind of experiment: Cytotoxicity against human SN12C cells assessed as cell growth at 5 uM after 48 hrs by SRB assay. Format: functional. The note with it: read-out: Activity.
Data set [25] in a line: Cytotoxicity against human HOP92 cells assessed as cell growth at 5 nM after 48 hrs by SRB assay. Type of data set: functional. As to conditions: HOP-92, 48 h, read-out: Activity.
Data set [26] has as its system SR. As to the kind of experiment: Cytotoxicity against human SR cells assessed as cell growth at 5 nM after 48 hrs by SRB assay. The note with it: read-out: Activity. Format: functional.
Data set [27] in a line: Cytotoxicity against human HOP92 cells assessed as cell growth at 50 nM after 48 hrs by SRB assay. Type of data set: functional. As to conditions: HOP-92, 48 h, read-out: Activity.
Data set [28] relates to SK-MEL-28. As to the kind of experiment: Cytotoxicity against human SK-MEL-28 cells assessed as cell growth at 50 uM after 48 hrs by SRB assay. Type of data set: functional. The note with it: SK-MEL-28, 48 h, read-out: Activity.
The test system of data set [29] is A549. Description: Cytotoxicity against human A549 cells assessed as cell growth at 0.5 uM after 48 hrs by SRB assay. Type of data set: functional. The note with it: A549, 48 h, read-out: Activity.
Data set [30] can be described thus: Cytotoxicity against human SF268 cells assessed as cell growth at 50 nM after 48 hrs by SRB assay. Type of data set: functional. The note with it: SF-268, 48 h, read-out: Activity.
Data set [31] can be described thus: Cytotoxicity against human SF268 cells assessed as cell growth at 5 nM after 48 hrs by SRB assay. The note with it: SF-268, 48 h, read-out: Activity. Format: functional.
Data set [32] deals with KM12. As to the kind of experiment: Cytotoxicity against human KM12 cells assessed as cell growth at 5 nM after 48 hrs by SRB assay. Type of data set: functional. The note with it: KM12, 48 h, read-out: Activity.
For data set [33], the system named is MCF7. Description: Cytotoxicity against human MCF7 cells assessed as cell growth at 50 nM after 48 hrs by SRB assay. Format: functional. The note with it: MCF7, 48 h, read-out: Activity.
In data set [34] the test system is SK-MEL-5. As to the kind of experiment: Cytotoxicity against human SK-MEL-5 cells assessed as cell growth at 5 nM after 48 hrs by SRB assay. Type of data set: functional. As to conditions: SK-MEL-5, 48 h, read-out: Activity.
Data set [35] in a line: Cytotoxicity against human UACC257 cells assessed as cell growth at 5 nM after 48 hrs by SRB assay. Type of data set: functional. As to conditions: UACC-257, 48 h, read-out: Activity.
Data set [36] can be described thus: Cytotoxicity against human SNB75 cells assessed as cell growth at 50 uM after 48 hrs by SRB assay. Type of data set: functional. As to conditions: SNB-75, 48 h, read-out: Activity.
Data set [37] can be described thus: Metabolic stability in human hepatocytes assessed as remaining parent compound level at 10 uM after 3 hrs by LC/MS analysis. Format: ADME, cell-based, Hepatocyte. As to conditions: read-out: Drug metabolism.
A short description of data set [38]: Cytotoxicity against human OVCAR3 cells assessed as cell growth at 0.5 uM after 48 hrs by SRB assay. The note with it: OVCAR-3, 48 h, read-out: Activity. Format: functional.
The test system of data set [39] is NCI-H23. Description: Cytotoxicity against human NCI-H23 cells assessed as cell growth at 5 uM after 48 hrs by SRB assay. Type of data set: functional. The note with it: NCI-H23, 48 h, read-out: Activity.
The test system of data set [40] is U-251. As to the kind of experiment: Cytotoxicity against human U251 cells assessed as cell growth at 5 uM after 48 hrs by SRB assay. Format: functional. As to conditions: U-251, 48 h, read-out: Activity.
Data set [41] has as its system NCI-H522. Description: Cytotoxicity against human NCI-H522 cells assessed as cell growth at 50 uM after 48 hrs by SRB assay. Format: functional. The note with it: NCI-H522, 48 h, read-out: Activity.

Regarding `C/C(=C(/c1ccc(O)cc1)c1ccc(OCCN2CCCC2)cc1)c1ccccc1`, the growth at 10 µM was -45% in data set [1], -71% in [15] and -51% in data set [18]. The growth at 0.01 µM in data set [2] amounted to 72%; in data set [7] it was 104%; in data set [8], 87%; in [9], 44%; in data set [14], 89%. Besides, the growth at 100 µM in [3] is -82%; in data set [4], -98%; in [6], -62%; in data set [10] it was -89%; in data set [11] it was -91%; in data set [16], -61%. In data set [19], the growth at 100 µM is -61%. Further, the growth at 0.1 µM in data set [5] and in [12] was 97% in each case. In addition, the growth at 1 µM in [13] came out at 95%; in [17] it was 101%; in [20], 91%; in data set [21] it was 103%.
`CCCCCCCCCC(=O)Oc1ccc(/C(=C(/C)c2ccccc2)c2ccc(OCCN3CCCC3)cc2)cc1`: the growth at 0.005 µM in [22] is 99%; in data set [25], 86%; in data set [26], 99%; in [31], 100%; in [32], 101%; in data set [34], 100%. The growth at 0.005 µM in data set [35] amounted to 95%. Further, the growth at 0.05 µM came out at 97% in data set [23], 83% in [27], 97% in data set [30] and 41% in data set [33]. Also, the growth at 5 µM in data set [24] amounted to 95%; in data set [39], 80%; in [40], 86%. In addition, the growth at 50 µM in [28] was -95%; in data set [36] it was -90%; in [41], -74%. In addition, the growth at 0.5 µM stood at 96% in data set [29] and 86% in data set [38]. In addition, in [37], the remaining at 3 h, 10 µM stood at 36%.
